Data: the Kinase Knowledgebase extract (Sharma et al. 2016)

Assays:
[1] = target: PIK3CG (human) (UniProt P48736); test: Assessment of PIK3CG Kinase Activity
[2] = target: PIK3CD (Human) (UniProt O00329); test: Assessment of PIK3CD Kinase Activity in RAJI Cells
[3] = target: PIK3CB (Human) (UniProt P42338); test: Assessment of PIK3CB Kinase Activity
[4] = target: PIK3CD (Human) (UniProt O00329); test: Assessment of PIK3CD Kinase Activity
[5] = target: PIK3CA (human) (UniProt P42336); test: Assessment of PIK3CA Kinase Activity
Sequence of PIK3CA (human) (P42336 whole entry, looked up): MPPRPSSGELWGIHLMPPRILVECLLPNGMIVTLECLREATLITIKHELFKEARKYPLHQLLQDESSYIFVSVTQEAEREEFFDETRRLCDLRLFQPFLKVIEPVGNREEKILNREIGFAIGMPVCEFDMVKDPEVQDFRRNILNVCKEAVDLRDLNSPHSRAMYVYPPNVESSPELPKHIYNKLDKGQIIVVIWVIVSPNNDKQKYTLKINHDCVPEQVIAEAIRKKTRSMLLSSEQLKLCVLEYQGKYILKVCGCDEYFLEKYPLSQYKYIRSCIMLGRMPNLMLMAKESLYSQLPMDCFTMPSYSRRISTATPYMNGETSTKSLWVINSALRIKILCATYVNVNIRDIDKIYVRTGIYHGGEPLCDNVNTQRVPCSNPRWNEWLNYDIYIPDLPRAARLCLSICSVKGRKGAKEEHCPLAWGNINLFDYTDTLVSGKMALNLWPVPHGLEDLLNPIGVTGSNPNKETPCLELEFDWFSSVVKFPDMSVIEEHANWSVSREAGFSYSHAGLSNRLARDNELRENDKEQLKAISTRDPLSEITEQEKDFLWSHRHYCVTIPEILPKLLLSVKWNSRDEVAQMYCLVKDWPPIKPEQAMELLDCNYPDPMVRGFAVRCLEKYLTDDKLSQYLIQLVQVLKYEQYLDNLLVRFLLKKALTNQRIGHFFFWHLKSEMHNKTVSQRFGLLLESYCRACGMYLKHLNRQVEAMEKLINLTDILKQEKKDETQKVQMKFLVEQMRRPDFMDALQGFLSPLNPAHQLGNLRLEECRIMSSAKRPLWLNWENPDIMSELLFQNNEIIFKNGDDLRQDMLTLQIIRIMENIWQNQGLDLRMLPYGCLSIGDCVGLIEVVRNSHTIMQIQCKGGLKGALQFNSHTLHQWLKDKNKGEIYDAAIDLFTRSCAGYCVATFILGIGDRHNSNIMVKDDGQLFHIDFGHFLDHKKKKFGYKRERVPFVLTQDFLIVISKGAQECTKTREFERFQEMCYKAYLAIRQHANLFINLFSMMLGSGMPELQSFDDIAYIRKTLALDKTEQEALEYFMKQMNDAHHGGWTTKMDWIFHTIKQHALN

[6] = target: PIK3CA (human) (UniProt P42336); test: Assessment of PIK3CA Kinase Activity in SKOV-3 Cells

Sequence of PIK3CD (Human) (O00329 whole entry, looked up): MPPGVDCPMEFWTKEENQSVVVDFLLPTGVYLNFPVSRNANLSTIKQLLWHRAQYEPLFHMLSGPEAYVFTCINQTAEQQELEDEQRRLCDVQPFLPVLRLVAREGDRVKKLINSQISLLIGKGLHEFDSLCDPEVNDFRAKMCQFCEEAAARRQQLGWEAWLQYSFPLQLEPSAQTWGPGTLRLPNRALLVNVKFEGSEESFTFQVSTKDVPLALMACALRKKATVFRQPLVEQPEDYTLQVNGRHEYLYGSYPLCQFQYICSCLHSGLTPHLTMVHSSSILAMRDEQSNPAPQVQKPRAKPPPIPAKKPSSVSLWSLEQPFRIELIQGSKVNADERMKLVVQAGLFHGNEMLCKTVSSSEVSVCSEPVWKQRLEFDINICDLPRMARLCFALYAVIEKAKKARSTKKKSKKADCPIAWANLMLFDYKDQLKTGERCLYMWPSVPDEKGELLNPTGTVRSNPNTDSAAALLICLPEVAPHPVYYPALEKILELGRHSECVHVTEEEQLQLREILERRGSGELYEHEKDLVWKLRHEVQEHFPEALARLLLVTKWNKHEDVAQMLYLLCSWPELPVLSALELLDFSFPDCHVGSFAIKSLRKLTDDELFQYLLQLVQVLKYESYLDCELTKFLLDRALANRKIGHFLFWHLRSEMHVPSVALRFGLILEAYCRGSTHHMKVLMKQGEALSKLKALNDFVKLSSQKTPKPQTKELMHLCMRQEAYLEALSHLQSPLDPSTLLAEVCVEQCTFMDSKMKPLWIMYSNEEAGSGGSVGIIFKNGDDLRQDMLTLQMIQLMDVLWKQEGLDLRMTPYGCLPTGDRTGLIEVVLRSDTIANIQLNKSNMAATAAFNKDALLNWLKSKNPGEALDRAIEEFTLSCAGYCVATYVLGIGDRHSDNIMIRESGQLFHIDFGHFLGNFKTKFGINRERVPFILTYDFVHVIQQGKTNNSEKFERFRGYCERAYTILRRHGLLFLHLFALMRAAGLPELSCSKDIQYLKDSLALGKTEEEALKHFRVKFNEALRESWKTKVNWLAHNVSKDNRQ
Sequence of PIK3CG (human) (P48736 whole entry, looked up): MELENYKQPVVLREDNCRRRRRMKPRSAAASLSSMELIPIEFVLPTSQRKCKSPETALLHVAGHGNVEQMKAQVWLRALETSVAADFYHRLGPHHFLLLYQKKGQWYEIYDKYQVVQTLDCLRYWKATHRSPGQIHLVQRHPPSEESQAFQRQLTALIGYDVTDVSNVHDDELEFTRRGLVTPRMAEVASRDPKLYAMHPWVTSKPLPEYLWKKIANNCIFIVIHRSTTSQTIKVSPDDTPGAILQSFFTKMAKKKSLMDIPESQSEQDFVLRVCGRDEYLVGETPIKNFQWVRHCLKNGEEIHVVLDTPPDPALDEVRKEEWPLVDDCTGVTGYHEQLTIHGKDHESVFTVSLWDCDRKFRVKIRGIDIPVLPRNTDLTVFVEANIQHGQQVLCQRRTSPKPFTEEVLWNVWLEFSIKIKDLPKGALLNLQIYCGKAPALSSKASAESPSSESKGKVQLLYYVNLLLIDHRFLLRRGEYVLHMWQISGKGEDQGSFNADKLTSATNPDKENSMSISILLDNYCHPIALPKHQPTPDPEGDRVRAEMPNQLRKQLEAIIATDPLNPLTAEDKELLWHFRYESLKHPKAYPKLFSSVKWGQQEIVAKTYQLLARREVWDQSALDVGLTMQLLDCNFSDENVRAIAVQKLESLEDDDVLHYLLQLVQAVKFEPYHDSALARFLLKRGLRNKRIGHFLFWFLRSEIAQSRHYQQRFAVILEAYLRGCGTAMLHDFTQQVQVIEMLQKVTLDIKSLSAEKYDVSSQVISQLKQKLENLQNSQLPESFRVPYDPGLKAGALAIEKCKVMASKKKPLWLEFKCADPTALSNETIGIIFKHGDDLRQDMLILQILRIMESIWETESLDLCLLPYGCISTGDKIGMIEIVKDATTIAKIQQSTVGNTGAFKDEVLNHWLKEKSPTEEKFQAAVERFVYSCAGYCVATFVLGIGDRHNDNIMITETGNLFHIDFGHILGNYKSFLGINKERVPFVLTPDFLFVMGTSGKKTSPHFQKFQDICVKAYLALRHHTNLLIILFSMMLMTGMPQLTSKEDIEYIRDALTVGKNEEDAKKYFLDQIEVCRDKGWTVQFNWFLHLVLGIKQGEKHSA
Sequence of PIK3CB (Human) (P42338 whole entry, looked up): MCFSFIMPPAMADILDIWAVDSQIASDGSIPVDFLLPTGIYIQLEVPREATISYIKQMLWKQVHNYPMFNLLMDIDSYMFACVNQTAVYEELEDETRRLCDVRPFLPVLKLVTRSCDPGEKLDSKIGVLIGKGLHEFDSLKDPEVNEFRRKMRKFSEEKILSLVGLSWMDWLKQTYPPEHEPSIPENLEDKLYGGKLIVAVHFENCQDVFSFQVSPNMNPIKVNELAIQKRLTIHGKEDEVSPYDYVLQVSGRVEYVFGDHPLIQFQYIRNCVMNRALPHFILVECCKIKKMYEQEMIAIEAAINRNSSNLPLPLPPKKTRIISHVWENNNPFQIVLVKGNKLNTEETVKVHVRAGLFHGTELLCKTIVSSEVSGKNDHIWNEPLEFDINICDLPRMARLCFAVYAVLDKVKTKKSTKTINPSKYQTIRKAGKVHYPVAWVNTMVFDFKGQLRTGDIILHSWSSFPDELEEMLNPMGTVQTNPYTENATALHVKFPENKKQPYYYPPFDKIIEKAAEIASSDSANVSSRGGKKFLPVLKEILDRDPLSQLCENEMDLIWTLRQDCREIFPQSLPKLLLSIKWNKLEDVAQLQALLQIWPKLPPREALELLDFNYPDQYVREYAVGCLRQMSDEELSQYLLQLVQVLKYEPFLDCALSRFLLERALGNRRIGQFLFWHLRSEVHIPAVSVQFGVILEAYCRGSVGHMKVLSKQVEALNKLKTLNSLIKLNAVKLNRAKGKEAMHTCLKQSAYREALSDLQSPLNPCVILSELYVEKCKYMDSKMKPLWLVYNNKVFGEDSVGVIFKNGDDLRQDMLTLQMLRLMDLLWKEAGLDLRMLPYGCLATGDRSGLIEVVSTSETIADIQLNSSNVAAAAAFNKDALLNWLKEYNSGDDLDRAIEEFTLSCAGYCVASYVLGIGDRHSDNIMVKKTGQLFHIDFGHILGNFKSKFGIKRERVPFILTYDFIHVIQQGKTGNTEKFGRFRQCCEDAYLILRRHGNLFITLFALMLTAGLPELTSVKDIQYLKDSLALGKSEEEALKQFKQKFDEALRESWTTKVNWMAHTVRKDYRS

| SMILES | IC50 [1] [nM] | IC50 [2] [nM] | IC50 [3] [µM] | IC50 [4] [nM] | IC50 [5] [µM] | IC50 [6] [nM] |
| --- | --- | --- | --- | --- | --- | --- |
| Cc1ncc(-c2cccc3nc([C@H](C)Nc4nc(N)nc5cccnc45)n(-c4ccccc4)c(=O)c23)cn1 | < 100 | < 100 | > 10 | < 100 |  |  |
| C[C@H](Nc1ncnc2cccnc12)c1cc2cccc(-c3cnn(C)c3)c2c(=O)n1-c1ccccc1 | < 100 | < 100 | > 10 | < 100 |  |  |
| C[C@H](Nc1ncnc2[nH]cnc12)c1cc2cccc(C(F)(F)F)c2c(=O)n1-c1cccc(F)c1 | < 100 | < 100 |  | < 100 |  |  |
| CNc1nc(N[C@@H](C)c2cc3cccc(-c4cnc(C)nc4)c3c(=O)n2-c2ccccc2)c2ncccc2n1 | 100 to 1000 |  | > 10 | 100 to 1000 | > 10 |  |
| CNc1nc(N[C@@H](C)c2cc3cccc(-c4cnc(OC)nc4)c3c(=O)n2-c2ccccc2)c2ncccc2n1 | 100 to 1000 |  | > 10 | < 100 | > 10 |  |
| COc1ncc(-c2cccc3cc([C@H](C)Nc4nc(OC)nc5cccnc45)n(-c4ccccc4)c(=O)c23)cn1 | > 10000 |  | > 10 | > 10000 | > 10 |  |
| C[C@H](Nc1ccnc2ccnn12)c1cc2scc(-c3cnn(C)c3)c2c(=O)n1-c1ccccc1 | 100 to 1000 |  | > 10 | 100 to 1000 | > 10 |  |
| Cc1ncc(-c2cccc3cc([C@H](C)Nc4nc(N)nc5cccnc45)n(-c4ccccc4)c(=O)c23)cn1 | < 100 |  | > 10 | < 100 | > 10 |  |
| C[C@H](Nc1ncnc2cccnc12)c1cc2ccc(F)c(Cl)c2c(=O)n1-c1ccccc1 | < 100 |  | 0.1 to 1 | < 100 | 0.1 to 1 |  |
| C[C@H](Nc1ncc(C(F)(F)F)c(N)n1)c1cc2cccc(Cl)c2c(CCN2CCOCC2)n1 | > 10000 |  | > 10 | > 10000 | > 10 |  |
| C[C@H](Nc1nc(N)nc2cccnc12)c1nc2cccc(-c3cnn(C)c3)c2c(=O)n1-c1ccccc1 | < 100 | < 100 | > 10 | < 100 |  | 100 to 1000 |
| C[C@H](Nc1cc(Cl)ncc1C(N)=O)c1cc2cccc(Cl)c2c(=O)n1-c1ccccc1 | 100 to 1000 |  | > 10 | 100 to 1000 | > 10 |  |
| C[C@H](Nc1nc(O)nc2cccnc12)c1cc2cccc(C(F)(F)F)c2c(=O)n1-c1cccc(F)c1 | > 10000 |  | > 10 | > 10000 | > 10 |  |
| C[C@H](Nc1nc(Cl)ns1)c1cc2cccc(Cl)c2c(=O)n1-c1ccccc1 | > 10000 |  | > 10 | > 10000 | > 10 |  |
| C[C@H](Nc1ccnn2ccnc12)c1cc2cccc(Cl)c2c(=O)n1-c1ccccc1 | < 100 |  | < 0.1 | < 100 | 0.1 to 1 |  |
| C[C@@H](c1cc2cccc(Cl)c2c(=O)n1-c1ccccc1)n1c(=O)[nH]c2cnc(N)nc21 | > 10000 |  | > 10 | > 10000 | > 10 |  |
| C[C@H](Nc1ccnn2ccnc12)c1cc2scc(-c3cnn(C)c3)c2c(=O)n1-c1ccccc1 | 100 to 1000 |  | > 10 | 100 to 1000 | > 10 |  |
| COc1ncc(-c2cccc3cc([C@H](C)Nc4nc(N)nc5cccnc45)n(-c4cccc(F)c4)c(=O)c23)cn1 | < 100 |  | > 10 | < 100 | > 10 |  |
| C[C@H](Nc1ncnc2cccnc12)c1cc2cccc(Cl)c2c(=O)n1-c1cccc(F)c1 | < 100 |  | 0.1 to 1 | < 100 | 0.1 to 1 |  |
| CC(C)n1c([C@H](C)Nc2ncnc3cccnc23)cc2cccc(-c3ccc(=O)n(C)c3)c2c1=O |  | < 100 |  | 100 to 1000 |  |  |
| C[C@H](Nc1ncnc2cccnc12)c1cc2cccc(Cl)c2c(=O)n1C1CC1 | < 100 |  | < 0.1 | < 100 | 0.1 to 1 |  |
| COc1ncc(-c2cccc3nc([C@H](C)Nc4nc(N)nc5cccnc45)n(-c4ccccc4)c(=O)c23)cn1 | < 100 | < 100 | > 10 | < 100 |  |  |
